Literature values as cited in paper PMC9762682, “Tocotrienols: Exciting Biological and Pharmacological Properties of Tocotrienols and Naturally Occurring Compounds, Part II” (Annals of clinical case reports, 2022).

Experiments:
T-cells (Jurkat) = tested on: T-cells (Jurkat); design: method as in PMID 29606130; value at effective dose: unit not given here
Lung cancer cells = tested on: Lung cancer cells; design: method as in PMID 29606130; value at effective dose: unit not given here
Breast cancer cells = tested on: Breast cancer cells; design: method as in PMID 29606130; value at effective dose: unit not given here
Melanoma cells = tested on: Melanoma cells; design: method as in PMID 29606130
Liver cancer cells = tested on: Liver cancer cells; design: method as in PMID 29606130; value at effective dose: unit not given here; settings: 48 h
Hela cells = tested on: Hela cells; design: method as in PMID 29606130; value at effective dose: unit not given here; settings: 48 h
B-Lymphocyte cells = tested on: B-Lymphocyte cells; design: method as in PMID 29606130; value at effective dose: unit not given here
Pancreas cancer cells = tested on: Pancreas cancer cells; design: method as in PMID 29606130; value at effective dose: unit not given here; settings: 48 h
Prostate cancer cells = tested on: Prostate cancer cells; design: method as in PMID 29606130; value at effective dose: scale not given here; settings: for effective dose / percentage of control at effective dose / value at effective dose: 48 h;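 on IC50: anti-proliferation of cancer cells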

Row | Structure (SMILES) | effective dose (T-cells (Jurkat)) [µM] | percentage of control at effective dose (T-cells (Jurkat)) [%] | value at effective dose (T-cells (Jurkat)) | effective dose (Lung cancer cells) [µM] | percentage of control at effective dose (Lung cancer cells) [%] | value at effective dose (Lung cancer cells) | effective dose (Breast cancer cells) [µM] | percentage of control at effective dose (Breast cancer cells) [%] | value at effective dose (Breast cancer cells) | effective dose (Melanoma cells) [µM] | percentage of control at effective dose (Melanoma cells) [%] | effective dose (Liver cancer cells) [µM] | percentage of control at effective dose (Liver cancer cells) [%] | value at effective dose (Liver cancer cells) | effective dose (Hela cells) [µM] | percentage of control at effective dose (Hela cells) [%] | value at effective dose (Hela cells) | effective dose (B-Lymphocyte cells) [µM] | percentage of control at effective dose (B-Lymphocyte cells) [%] | value at effective dose (B-Lymphocyte cells) | other results
1 | CC1(C)S[C@@H]2[C@H](NC(=O)[C@H](N)c3ccccc3)C(=O)N2[C@H]1C(=O)O [Ampicillin] | 20 | 94 | 450.3 ± 15.6 | 80 | 85 | 21.3 ± 1.5 | 40 | 74 | 16.7 ± 6.1 | 20 | 70 | 40 | 88 | 70.3 ± 4.2 | 80 | 88 | 47.7 ± 5.5 | 10 | 66 | 44.7 ± 5.1 | effective dose (Pancreas cancer cells): 80 µM; percentage of control at effective dose (Pancreas cancer cells): 74%; value at effective dose (Pancreas cancer cells): 35.3 ± 5.0; IC50 (Prostate cancer cells): 5 µM; percentage of control at IC50 dose (Prostate cancer cells): 50%; effective dose (Prostate cancer cells): 20 µM; percentage of control at effective dose (Prostate cancer cells): 41%; value at effective dose (Prostate cancer cells): 15.0 ± 1.0
2 | O=C1O[C@H]([C@@H](O)CO)C(O)=C1O [Ascorbic Acid] | 40 | 89 | 451.3 ± 32.4 | 20 | 46 | 15.0 ± 4.4 | 40 | 73 | 15.0 ± 1.7 | 80 | 81 | 80 | 90 | 74.3 ± 2.5 | 80 | 64 | 21.0 ± 0.1 | 20 | 62 | 17.3 ± 2.5 | IC50 (Lung cancer cells): 10 µM; percentage of control at IC50 dose (Lung cancer cells): 49%; effective dose (Pancreas cancer cells): 80 µM; percentage of control at effective dose (Pancreas cancer cells): 71%; value at effective dose (Pancreas cancer cells): 42.3 ± 2.5; effective dose (Prostate cancer cells): 80 µM; percentage of control at effective dose (Prostate cancer cells): 81%; value at effective dose (Prostate cancer cells): 29.3 ± 2.1
